# Activity calls are given as the source filed them. The calls are words filed in the database; no cut-off is given here.
# How the values were obtained:
# [1] = system: HeLa; test: Antiproliferative activity against human HeLa cells after 24 hrs by crystal violet staining-based assay; assay type: functional, cell-based
# [2] = system: Ca-Ski; test: Antiproliferative activity against human CaSki cells after 24 hrs by crystal violet staining-based assay; assay type: functional, cell-based
# [3] = system: Ca-Ski; test: Cytotoxicity against human CaSki cells assessed as induction of necrosis at antiproliferative IC50 after 24 hrs by LDH release assay relative to control; assay type: cell-based
# [4] = system: HeLa; test: Cytotoxicity against human HeLa cells assessed as induction of necrosis at antiproliferative IC50 after 24 hrs by LDH release assay relative to control; assay type: cell-based
# [5] = Cytotoxicity against human ViBo cells assessed as induction of necrosis at antiproliferative IC50 after 24 hrs by LDH release assay relative to control; assay type: cell-based
# [6] = (§1) Antiproliferative activity against human ViBo cells after 24 hrs by crystal violet staining-based assay; assay type: functional, cell-based
# [7] = species: Homo sapiens; test: as §1; assay type: functional, cell-based
# [8] = system: HeLa; test: Cell cycle analysis in human HeLa cells assessed as accumulation of cells at G1 phase at antiproliferative IC50 after 24 hrs by propidium iodide staining-based flow cytometric analysis (reference value: 69.25%); assay type: functional
# [9] = system: Lymphocyte; test: Induction of cell proliferation of enriched human lymphocytes assessed as cell proliferation level at 0.99 uM after 72 hrs by CFSE staining-based flow cytometric analysis (reference value: 73.36%)
# [10] = system: Ca-Ski; test: Induction of apoptosis in human CaSki cells assessed as chromatin condensation at antiproliferative IC50 by DAPI staining-based epifluorescence microscopic analysis; assay type: functional, cell-based
# [11] = system: Ca-Ski; test: Cell cycle analysis in human CaSki cells assessed as accumulation of cells at G1 phase at antiproliferative IC50 after 24 hrs by propidium iodide staining-based flow cytometric analysis (reference value: 69.31%); assay type: functional
# [12] = system: Lymphocyte; test: Cytotoxicity in enriched human lymphocytes assessed as induction of necrosis by measuring LDH release at 2.36 uM after 72 hrs by LDH release assay; assay type: cell-based
# [13] = system: Ca-Ski; test: Induction of apoptosis in human CaSki cells assessed as caspase3 activity at antiproliferative IC50 after 24 hrs by FITC staining-based FACS analysis (reference value: 5%); assay type: functional
# [14] = system: Lymphocyte; test: Induction of cell proliferation of enriched human lymphocytes assessed as cell proliferation level at 0.73 uM after 72 hrs by CFSE staining-based flow cytometric analysis (reference value: 73.36%)
# [15] = system: HeLa; test: Cell cycle analysis in human HeLa cells assessed as accumulation of cells at S phase at antiproliferative IC50 after 24 hrs by propidium iodide staining-based flow cytometric analysis (reference value: 10.37%); assay type: functional
# [16] = Cell cycle analysis in human ViBo cells assessed as accumulation of cells at S phase at antiproliferative IC50 after 24 hrs by propidium iodide staining-based flow cytometric analysis (reference value: 11.67%); assay type: functional
# [17] = system: Ca-Ski; test: Induction of apoptosis in human CaSki cells assessed as caspase3 activation at antiproliferative IC50 after 24 hrs by FITC/DAPI staining-based fluorescence microscopic analysis; assay type: functional, cell-based
# [18] = Induction of apoptosis in human ViBo cells assessed as caspase3 activity at antiproliferative IC50 after 24 hrs by FITC staining-based FACS analysis (reference value: 5%); assay type: functional
# [19] = system: Lymphocyte; test: Induction of cell proliferation of enriched human lymphocytes assessed as cell proliferation level at 2.36 uM after 72 hrs by CFSE staining-based flow cytometric analysis (reference value: 73.36%)
# [20] = system: Lymphocyte; test: Cytotoxicity in enriched human lymphocytes assessed as induction of necrosis by measuring LDH release at 0.73 uM after 72 hrs by LDH release assay; assay type: cell-based
# [21] = system: Ca-Ski; test: Induction of apoptosis in human CaSki cells assessed as formation of apoptotic bodies at antiproliferative IC50 by DAPI staining-based epifluorescence microscopic analysis; assay type: functional, cell-based
# [22] = species: Homo sapiens; test: Induction of apoptosis in human ViBo cells assessed as formation of apoptotic bodies at antiproliferative IC50 by DAPI staining-based epifluorescence microscopic analysis; assay type: functional, cell-based
# [23] = system: Ca-Ski; test: Cell cycle analysis in human CaSki cells assessed as accumulation of cells at S phase at antiproliferative IC50 after 24 hrs by propidium iodide staining-based flow cytometric analysis (reference value: 10.12%); assay type: functional
# [24] = species: Homo sapiens; test: Induction of apoptosis in human ViBo cells assessed as caspase3 activation at antiproliferative IC50 after 24 hrs by FITC/DAPI staining-based fluorescence microscopic analysis; assay type: functional, cell-based
# [25] = system: HeLa; test: Cell cycle analysis in human HeLa cells assessed as accumulation of cells at G2/M phase at antiproliferative IC50 after 24 hrs by propidium iodide staining-based flow cytometric analysis (reference value: 17.19%); assay type: functional
# [26] = system: HeLa; test: Induction of apoptosis in human HeLa cells assessed as chromatin condensation at antiproliferative IC50 by DAPI staining-based epifluorescence microscopic analysis; assay type: functional, cell-based
# [27] = species: Homo sapiens; test: Induction of apoptosis in human ViBo cells assessed as chromatin condensation at antiproliferative IC50 by DAPI staining-based epifluorescence microscopic analysis; assay type: functional, cell-based
# [28] = Cell cycle analysis in human ViBo cells assessed as accumulation of cells at G2/M phase at antiproliferative IC50 after 24 hrs by propidium iodide staining-based flow cytometric analysis (reference value: 16.20%); assay type: functional
# [29] = system: Ca-Ski; test: Cell cycle analysis in human CaSki cells assessed as accumulation of cells at G2/M phase at antiproliferative IC50 after 24 hrs by propidium iodide staining-based flow cytometric analysis (reference value: 16.59%); assay type: functional
# [30] = system: HeLa; test: Induction of apoptosis in human HeLa cells assessed as caspase3 activation at antiproliferative IC50 after 24 hrs by FITC/DAPI staining-based fluorescence microscopic analysis; assay type: functional, cell-based
# [31] = system: Lymphocyte; test: Cytotoxicity in enriched human lymphocytes assessed as induction of necrosis by measuring LDH release at 0.99 uM after 72 hrs by LDH release assay; assay type: cell-based
# [32] = system: HeLa; test: Induction of apoptosis in human HeLa cells assessed as caspase3 activity at antiproliferative IC50 after 24 hrs by FITC staining-based FACS analysis (reference value: 3%); assay type: functional
# [33] = system: HeLa; test: Induction of apoptosis in human HeLa cells assessed as formation of apoptotic bodies at antiproliferative IC50 by DAPI staining-based epifluorescence microscopic analysis; assay type: functional, cell-based
# [34] = Cell cycle analysis in human ViBo cells assessed as accumulation of cells at G1 phase at antiproliferative IC50 after 24 hrs by propidium iodide staining-based flow cytometric analysis (reference value: 66.69%); assay type: functional
smiles,measurement,setting,value
CC(C)(C)OC(=O)N1CCN(C(=S)SC(C[N+](=O)[O-])c2ccccc2)CC1 (stereo not drawn),IC50,[1],31.6 µM
same,IC50,[2],29.4 µM
same,Activity,[3],0%
same,Activity,[4],0%
same,Activity,[5],0%
same,IC50,[6],19.2 µM
CC(=O)O[C@H]1C(=O)[C@@]2(C)[C@H]([C@H](OC(=O)c3ccccc3)[C@]3(O)C[C@H](OC(=O)[C@H](O)[C@@H](NC(=O)c4ccccc4)c4ccccc4)C(C)=C1C3(C)C)[C@]1(OC(C)=O)CO[C@@H]1C[C@@H]2O [PACLITAXEL],IC50,[2],2.9 µM
same,IC50,[6],1.59 µM
COc1ccc(C(C[N+](=O)[O-])SC(=S)N2C[C@@H]3C[C@H]2CN3C(=O)OC(C)(C)C)cc1 (stereo partly drawn),Activity,[1],Dose-dependent effect
same,IC50,[1],5.29 µM
same,Activity,[2],Dose-dependent effect
same,IC50,[2],6.17 µM
same,Activity,[3],0%
same,Activity,[4],0%
same,Activity,[5],5%
same,IC50,[6],2.64 µM
same,Activity,[7],Dose-dependent effect
CC(C)(C)OC(=O)N1C[C@@H]2C[C@H]1CN2C(=S)SC(C[N+](=O)[O-])c1ccc(C(F)(F)F)cc1 (stereo partly drawn),Activity,[1],Dose-dependent effect
same,IC50,[1],6.1 µM
same,Activity,[2],Dose-dependent effect
same,IC50,[2],6.1 µM
same,Activity,[3],20%
same,Activity,[4],5%
same,Activity,[5],0%
same,IC50,[6],7.32 µM
same,Activity,[7],Dose-dependent effect
Cc1ccc(C(C[N+](=O)[O-])SC(=S)N2C[C@@H]3C[C@H]2CN3C(=O)OC(C)(C)C)cc1 (stereo partly drawn),Activity,[1],Dose-dependent effect
same,IC50,[1],5.52 µM
same,Activity,[2],Dose-dependent effect
same,IC50,[2],5.94 µM
same,Activity,[3],2%
same,Activity,[4],0%
same,Activity,[5],5%
same,IC50,[6],3.19 µM
same,Activity,[7],Dose-dependent effect
CC(C)(C)OC(=O)N1C[C@@H]2C[C@H]1CN2C(=S)SC(C[N+](=O)[O-])c1ccc(F)cc1 (stereo partly drawn),Activity,[1],Dose-dependent effect
same,IC50,[1],7.92 µM
same,Activity,[2],Dose-dependent effect
same,IC50,[2],6.79 µM
same,Activity,[3],5%
same,Activity,[4],2%
same,Activity,[5],8%
same,IC50,[6],6.56 µM
same,Activity,[7],Dose-dependent effect
CC(C)(C)OC(=O)N1C[C@@H]2C[C@H]1CN2C(=S)SC(C[N+](=O)[O-])c1ccccc1 (stereo partly drawn),Activity,[8],70.26%
same,Activity,[9],62.38%
same,Activity,[10],Active
same,Activity,[11],72.29%
same,Activity,[12],Non-Toxic
same,Activity,[13],42%
same,Activity,[14],64.02%
same,Activity,[15],10.68%
same,Activity,[16],10.05%
same,Activity,[1],Dose-dependent effect
same,IC50,[1],0.989 µM
same,Activity,[17],Active
same,Activity,[18],35%
same,Activity,[19],7.44%
same,Activity,[20],Non-Toxic
same,Activity,[21],Active
same,Activity,[22],Active
same,Activity,[23],10.49%
same,Activity,[2],Dose-dependent effect
same,IC50,[2],2.36 µM
same,Activity,[24],Active
same,Activity,[25],16.01%
same,Activity,[26],Active
same,Activity,[27],Active
same,Activity,[3],2%
same,Activity,[4],3%
same,Activity,[5],0%
same,Activity,[28],20.48%
same,Activity,[29],14.35%
same,Activity,[30],Active
same,IC50,[6],0.73 µM
same,Activity,[7],Dose-dependent effect
same,Activity,[31],Non-Toxic
same,Activity,[32],36%
same,Activity,[33],Active
same,Activity,[34],64.38%
CC(C)(C)OC(=O)N1C[C@@H]2C[C@H]1CN2C(=S)SC(C[N+](=O)[O-])c1ccc(Cl)cc1 (stereo partly drawn),Activity,[1],Dose-dependent effect
same,IC50,[1],5.67 µM
same,Activity,[2],Dose-dependent effect
same,IC50,[2],7.2 µM
same,Activity,[3],15%
same,Activity,[4],4%
same,Activity,[5],12%
same,IC50,[6],2.4 µM
same,Activity,[7],Dose-dependent effect
CC[C@@]1(O)C(=O)OCc2c1cc1n(c2=O)Cc2cc3ccccc3nc2-1 [CAMPTOTHECIN],Activity,[13],62%
same,IC50,[1],0.94 µM
same,Activity,[18],48%
same,IC50,[2],1.8 µM
same,Activity,[3],2%
same,Activity,[4],3%
same,Activity,[5],0%
same,IC50,[6],1.92 µM
same,Activity,[32],29%

# — ChEMBL document CHEMBL4229336, “Identification of (1S,4S)-2,5-diazabicyclo[2.2.1]heptane-dithiocarbamate-nitrostyrene hybrid as potent antiproliferative and apoptotic inducing agent against cervical cancer cell lines” (Eur J Med Chem, 2018)
